The first test deals with T1, PSD95-nNOS (GFP-PSD95 coupled to His-nNOS on magnetic Fe-MOF) (Rattus norvegicus (nNOS); Homo sapiens (PSD95), UniProt P29476+P78352).
T1 construct: gene Nos1; two-species complex; myc-His-nNOS (pcDNA3.1) and GFP-PSD95-Flag (pcDNA3.1), total synthesized genes, expressed in HEK293T, from RIPA lysates; His-nNOS immobilized on magnetic Fe-MOF, then GFP-PSD95 coupled
T1 sequence (P29476 whole entry): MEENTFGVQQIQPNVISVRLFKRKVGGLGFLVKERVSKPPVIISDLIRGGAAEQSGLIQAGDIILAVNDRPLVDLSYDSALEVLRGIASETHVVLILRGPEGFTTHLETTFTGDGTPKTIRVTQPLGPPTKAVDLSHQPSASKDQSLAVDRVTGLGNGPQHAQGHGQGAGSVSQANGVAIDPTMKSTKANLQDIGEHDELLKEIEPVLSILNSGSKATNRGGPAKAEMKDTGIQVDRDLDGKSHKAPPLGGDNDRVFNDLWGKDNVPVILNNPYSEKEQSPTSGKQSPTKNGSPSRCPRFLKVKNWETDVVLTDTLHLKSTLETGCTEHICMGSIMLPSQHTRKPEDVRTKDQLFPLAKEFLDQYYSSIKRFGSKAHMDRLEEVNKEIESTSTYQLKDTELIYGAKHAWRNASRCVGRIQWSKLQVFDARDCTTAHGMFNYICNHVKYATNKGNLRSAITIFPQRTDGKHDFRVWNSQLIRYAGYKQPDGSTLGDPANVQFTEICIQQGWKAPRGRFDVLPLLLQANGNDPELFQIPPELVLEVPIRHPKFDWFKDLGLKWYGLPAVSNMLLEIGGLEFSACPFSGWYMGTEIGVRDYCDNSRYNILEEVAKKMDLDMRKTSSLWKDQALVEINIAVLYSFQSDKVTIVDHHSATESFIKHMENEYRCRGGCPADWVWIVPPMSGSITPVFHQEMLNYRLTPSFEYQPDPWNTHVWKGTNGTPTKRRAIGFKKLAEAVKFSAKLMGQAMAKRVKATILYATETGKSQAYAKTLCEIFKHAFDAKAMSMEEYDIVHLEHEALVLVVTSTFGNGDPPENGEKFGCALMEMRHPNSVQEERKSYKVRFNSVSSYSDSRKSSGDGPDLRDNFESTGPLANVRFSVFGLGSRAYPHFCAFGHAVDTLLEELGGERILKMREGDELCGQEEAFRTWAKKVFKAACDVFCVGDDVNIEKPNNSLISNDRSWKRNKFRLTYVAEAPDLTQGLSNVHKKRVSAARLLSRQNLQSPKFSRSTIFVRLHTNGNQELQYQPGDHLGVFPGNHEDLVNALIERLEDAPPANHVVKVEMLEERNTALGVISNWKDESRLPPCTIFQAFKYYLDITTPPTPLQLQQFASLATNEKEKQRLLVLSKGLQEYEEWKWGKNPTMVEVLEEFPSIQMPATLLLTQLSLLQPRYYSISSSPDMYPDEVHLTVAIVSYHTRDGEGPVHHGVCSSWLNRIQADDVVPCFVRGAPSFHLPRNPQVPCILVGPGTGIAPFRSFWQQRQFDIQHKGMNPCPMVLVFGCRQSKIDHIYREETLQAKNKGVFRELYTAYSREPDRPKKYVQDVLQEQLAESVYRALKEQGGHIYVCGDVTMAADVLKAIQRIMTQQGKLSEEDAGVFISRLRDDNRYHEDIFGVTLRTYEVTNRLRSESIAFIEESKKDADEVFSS
T1 sequence (P78352 whole entry): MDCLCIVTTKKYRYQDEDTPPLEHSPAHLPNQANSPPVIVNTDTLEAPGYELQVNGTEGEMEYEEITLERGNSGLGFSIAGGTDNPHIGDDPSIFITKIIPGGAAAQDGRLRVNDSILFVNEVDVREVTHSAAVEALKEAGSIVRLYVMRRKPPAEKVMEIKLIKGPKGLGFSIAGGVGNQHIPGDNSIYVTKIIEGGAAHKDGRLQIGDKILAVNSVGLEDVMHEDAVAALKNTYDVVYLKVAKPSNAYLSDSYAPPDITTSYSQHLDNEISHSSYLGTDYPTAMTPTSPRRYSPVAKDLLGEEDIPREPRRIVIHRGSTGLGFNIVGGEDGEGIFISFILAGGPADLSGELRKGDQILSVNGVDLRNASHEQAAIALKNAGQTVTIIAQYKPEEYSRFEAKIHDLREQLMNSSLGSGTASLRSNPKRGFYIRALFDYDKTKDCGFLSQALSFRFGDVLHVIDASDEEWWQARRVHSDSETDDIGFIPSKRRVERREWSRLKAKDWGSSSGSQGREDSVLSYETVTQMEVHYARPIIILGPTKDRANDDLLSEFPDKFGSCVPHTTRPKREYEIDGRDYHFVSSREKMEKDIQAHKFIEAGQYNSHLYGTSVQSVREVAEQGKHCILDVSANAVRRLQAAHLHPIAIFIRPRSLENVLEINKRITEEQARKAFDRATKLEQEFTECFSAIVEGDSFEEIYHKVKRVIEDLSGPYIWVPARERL
Description: uncoupling of GFP-PSD95 from His-nNOS/Fe-MOF, magnetic separation, fluorescence. In kind it is binding.
Conditions: not given
From the text:
uncoupling of GFP-PSD95 from His-nNOS/Fe-MOF, magnetic separation, fluorescence on PSD95-nNOS (GFP-PSD95 coupled to His-nNOS on magnetic Fe-MOF)
Regarding `O=C(O)c1ccc(NCc2cc(Cl)cc(Cl)c2O)cc1O` [ZL006, 4-(3,5-Dichloro-2-hydroxy-benzylamino)-2-hydroxybenzoic acid, reference compound], it took 1800 ± 151 µM to reach half-maximal inhibition (IC50).

The compound `O=C(O)[C@H]1O[C@@H](Oc2cc3oc(-c4ccccc4)cc(=O)c3c(O)c2O)[C@H](O)[C@@H](O)[C@@H]1O` [compound 1, Baicalin] showed an IC50 of 104 ± 1 µM.

In turn, `O=c1cc(-c2ccccc2)oc2cc(O)c(O)c(O)c12` [compound 2, Baicalein] displayed an IC50 of 144 ± 22 µM.

Compound `COc1cc(/C=C/c2cc(O)cc(O)c2)ccc1O` [compound 6, Isorhapontigenin] displayed an IC50 of more than 1800 µM.

The compound `COc1cc2c[n+](C)c3c4cc5c(cc4ccc3c2cc1OC)OCO5` [compound 7, Nitidine chloride] had a half-inhibitory concentration (IC50) of more than 1800 µM.

In turn, `COc1ccc2c(c[n+](C)c3c4cc5c(cc4ccc23)OCO5)c1OC` [compound 8, Chelerythrine] registered an IC50 of more than 1800 µM.

Consider `COc1cc(O)c2c(c1)C(=O)c1cc(C)cc(O)c1C2=O` [compound 9, Physcion], for which the IC50 is more than 1800 µM.

Still in this test, the particulars now being: PBS pH 7.4, 0.1% DMSO, 4 °C, 5 h; immobilized nNOS; inhibition of PSD95-nNOS coupling, binding chain not told.
On to `Oc1cc(O)cc(/C=C/c2c(O)cccc2O)c1` [compound 3, Gnetol], for which the IC50 was determined as 492 ± 63 µM.

Source of the values: article PMC9375364, “Fabrication of multifunctional metal–organic frameworks nanoparticles via layer-by-layer self-assembly to efficiently discover PSD95-nNOS uncouplers for stroke treatment” (Journal of Nanobiotechnology, 2022).
